This note sets out measurements from patent US20090036448A1, “PYRIMIDINE DERIVATIVES AND METHODS OF TREATMENT RELATED TO THE USE THEREOF” (TAISHO PHARMECUTICAL CO., LTD., priority 2004, published 2009).

The target of this test is MCH receptor (Homo sapiens, UniProt Q99705). The test is described as follows: Receptor binding assay with Radiolabelled MCH Ligand. The note with it: class by percent of control at 10^-7 M or IC50. Also on record: expressed in transfected cells; host or cells: 293 cells (human kidney, ATCC), transient transfection; crude membranes. The method in brief: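 Membranes from 293 cells transiently transfected with human MCH receptor competed test compounds against a radiolabelled MCH ligand in Tris-HCl pH 7.4 with MgCl2 and EDTA for 60–120 min at room temperature. Filtration and scintillation counting followed, with cold MCH defining nonspecific binding. IC50 came from logit-log plots of %B/B0, and Ki from the Cheng-Prusoff equation.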
Sequence of MCH receptor (Q99705 whole entry): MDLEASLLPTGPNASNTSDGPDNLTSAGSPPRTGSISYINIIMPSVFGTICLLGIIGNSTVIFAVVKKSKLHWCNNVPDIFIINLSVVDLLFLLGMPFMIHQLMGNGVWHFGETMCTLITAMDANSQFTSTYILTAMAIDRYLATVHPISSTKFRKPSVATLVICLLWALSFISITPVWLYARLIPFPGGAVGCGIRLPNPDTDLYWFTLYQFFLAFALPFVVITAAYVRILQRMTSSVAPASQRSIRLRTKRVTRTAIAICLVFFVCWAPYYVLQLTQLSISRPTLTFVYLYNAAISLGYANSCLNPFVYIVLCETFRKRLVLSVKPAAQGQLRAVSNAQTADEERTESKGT
In the case of `Cc1nc(N[C@H]2CC[C@@H](NC(=O)c3cccs3)CC2)cc(N(C)C)n1` [compound 243], the class is 3 (Class 3: The value of percent of control at 10^−7 M was more than 60% or the value of IC50 was more than 200 nM.).
The result for `Cc1nc(N[C@H]2CC[C@@H](NC(=O)Cc3c[nH]c4ccc(OCc5ccccc5)cc34)CC2)cc(N(C)C)n1` [compound 318] reads 3 (Class 3: The value of percent of control at 10^−7 M was more than 60% or the value of IC50 was more than 200 nM.); that for `Cc1nc(N[C@H]2CC[C@@H](NCc3ccc(Cl)cc3)CC2)cc(N(C)C)n1` [compound 360], 3 (Class 3: The value of percent of control at 10^−7 M was more than 60% or the value of IC50 was more than 200 nM.).
Next, `Cc1nc(N[C@H]2CC[C@@H](NC(=O)c3ccc(Br)cc3)CC2)cc(N(C)C)n1` [compound 205]: 3 (Class 3: The value of percent of control at 10^−7 M was more than 60% or the value of IC50 was more than 200 nM.).
The result for `Cc1nc(N[C@H]2CC[C@@H](NC(=O)Nc3c(C)noc3-c3ccccc3)CC2)cc(N(C)C)n1` [compound 433] reads 3 (Class 3: The value of percent of control at 10^−7 M was more than 60% or the value of IC50 was more than 200 nM.); that for `Cc1nc(N[C@H]2CC[C@@H](NC(=O)CCCc3ccc4c(c3)OCCO4)CC2)cc(N(C)C)n1` [compound 341], 3 (Class 3: The value of percent of control at 10^−7 M was more than 60% or the value of IC50 was more than 200 nM.); that for `Cc1nc(N[C@H]2CC[C@@H](NC(=O)C3(c4ccc(Cl)cc4)CCCC3)CC2)cc(N(C)C)n1` [compound 214], 1 (Class 1: The value of percent of control at 10^−7 M was less than 40% or the value of IC50 was less than 50 nM.).
In the case of `Cc1ccc(S(=O)(=O)n2ccc(C(=O)N[C@H]3CC[C@@H](Nc4cc(N(C)C)nc(C)n4)CC3)c2)cc1` [compound 342], the class was 3 (Class 3: The value of percent of control at 10^−7 M was more than 60% or the value of IC50 was more than 200 nM.).
Turning to `Cc1nc(N[C@H]2CC[C@@H](NC(=O)OCc3ccccc3)CC2)cc(N(C)C)n1` [compound 463], the class is recorded as 3 (Class 3: The value of percent of control at 10^−7 M was more than 60% or the value of IC50 was more than 200 nM.).
The result for `COC(=O)c1ccc(C(=O)N[C@H]2CC[C@@H](Nc3cc(N(C)C)nc(C)n3)CC2)cc1` [compound 227] reads 3 (Class 3: The value of percent of control at 10^−7 M was more than 60% or the value of IC50 was more than 200 nM.); that for `Cc1nc(N[C@H]2CC[C@@H](NC(=O)Nc3c(Br)cc(Br)cc3Br)CC2)cc(N(C)C)n1` [compound 429, N-(cis-4-{[6-(dimethylamino)-2-methylpyrimidin-4-yl]amino}cyclohexyl)-N′-(2,4,6-tribromophenyl)urea], 1 (Class 1: The value of percent of control at 10^−7 M was less than 40% or the value of IC50 was less than 50 nM.); that for `COC(=O)c1scc(C)c1NC(=S)N[C@H]1CC[C@@H](Nc2cc(N(C)C)nc(C)n2)CC1` [compound 451], 3 (Class 3: The value of percent of control at 10^−7 M was more than 60% or the value of IC50 was more than 200 nM.).
The result for `CC(=O)N[C@H]1CC[C@@H](Nc2cc(N(C)C)nc(C)n2)CC1` [compound 199] reads 3 (Class 3: The value of percent of control at 10^−7 M was more than 60% or the value of IC50 was more than 200 nM.); that for `Cc1nc(N[C@H]2CC[C@@H](NC(=O)c3ccc4cc5ccccc5cc4c3)CC2)cc(N(C)C)n1` [compound 333], 3 (Class 3: The value of percent of control at 10^−7 M was more than 60% or the value of IC50 was more than 200 nM.); that for `Cc1nc(N[C@H]2CC[C@@H](NC(=O)Cc3ccccc3I)CC2)cc(N(C)C)n1` [compound 287], 3 (Class 3: The value of percent of control at 10^−7 M was more than 60% or the value of IC50 was more than 200 nM.).
Next, `COc1ccc2[nH]c(C(=O)N[C@H]3CC[C@@H](Nc4cc(N(C)C)nc(C)n4)CC3)cc2c1` [compound 293]: 3 (Class 3: The value of percent of control at 10^−7 M was more than 60% or the value of IC50 was more than 200 nM.); `Cc1nc(N[C@H]2CC[C@@H](NC(=O)COc3ccccc3[N+](=O)[O-])CC2)cc(N(C)C)n1` [compound 239]: 3 (Class 3: The value of percent of control at 10^−7 M was more than 60% or the value of IC50 was more than 200 nM.); `Cc1nc(N[C@H]2CC[C@@H](NC(=O)Cc3ccc(OC(F)(F)F)cc3)CC2)cc(N(C)C)n1` [compound 313]: 3 (Class 3: The value of percent of control at 10^−7 M was more than 60% or the value of IC50 was more than 200 nM.).
Consider `CCOC(=O)c1c(S(=O)(=O)N[C@H]2CC[C@@H](Nc3cc(N(C)C)nc(C)n3)CC2)c(-c2ccc(Cl)cc2)n(-c2ccccc2)c1C` [compound 514], for which the class is reported as 3 (Class 3: The value of percent of control at 10^−7 M was more than 60% or the value of IC50 was more than 200 nM.).
The result for `Cc1nc(N[C@H]2CC[C@@H](NS(=O)(=O)c3ccc(Cl)c(Cl)c3)CC2)cc(N(C)C)n1` [compound 502] reads 3 (Class 3: The value of percent of control at 10^−7 M was more than 60% or the value of IC50 was more than 200 nM.); that for `Cc1nc(N[C@H]2CC[C@@H](NS(=O)(=O)c3cccc(Br)c3)CC2)cc(N(C)C)n1` [compound 500], 3 (Class 3: The value of percent of control at 10^−7 M was more than 60% or the value of IC50 was more than 200 nM.); that for `CC(=O)c1ccc(C(=O)N[C@H]2CC[C@@H](Nc3cc(N(C)C)nc(C)n3)CC2)s1` [compound 344], 3 (Class 3: The value of percent of control at 10^−7 M was more than 60% or the value of IC50 was more than 200 nM.).
Next, `Cc1nc(N[C@H]2CC[C@@H](NS(=O)(=O)c3cccc4c(N(C)C)cccc34)CC2)cc(N(C)C)n1` [compound 490]: 3 (Class 3: The value of percent of control at 10^−7 M was more than 60% or the value of IC50 was more than 200 nM.); `Cc1nc(N[C@H]2CC[C@@H](NC(=O)Oc3ccc4ccccc4c3)CC2)cc(N(C)C)n1` [compound 461]: 3 (Class 3: The value of percent of control at 10^−7 M was more than 60% or the value of IC50 was more than 200 nM.); `Cc1nc(N[C@H]2CC[C@@H](NS(=O)(=O)c3ccc(Oc4ncc(C(F)(F)F)cc4Cl)cc3)CC2)cc(N(C)C)n1` [compound 497]: 3 (Class 3: The value of percent of control at 10^−7 M was more than 60% or the value of IC50 was more than 200 nM.).
Next, `COc1ccccc1OC(=O)N[C@H]1CC[C@@H](Nc2cc(N(C)C)nc(C)n2)CC1` [compound 456]: 3 (Class 3: The value of percent of control at 10^−7 M was more than 60% or the value of IC50 was more than 200 nM.); `Cc1nc(N[C@H]2CC[C@@H](NC(=O)Nc3c(C)cccc3C(C)(C)C)CC2)cc(N(C)C)n1` [compound 422]: 2 (Class 2: The value of percent of control at 10^−7 M was from 40% to 60% or the value of IC50 was from 50 nM to 200 nM.); `Cc1nc(N[C@H]2CC[C@@H](NC(=O)C(C(=O)OCc3ccccc3)c3ccccc3)CC2)cc(N(C)C)n1` (relative stereo) [compound 321]: 3 (Class 3: The value of percent of control at 10^−7 M was more than 60% or the value of IC50 was more than 200 nM.).
In the case of `Cc1nc(N[C@H]2CC[C@@H](NC(=S)Nc3ccc(N(C)C)c4ccccc34)CC2)cc(N(C)C)n1` [compound 440], the class was 3 (Class 3: The value of percent of control at 10^−7 M was more than 60% or the value of IC50 was more than 200 nM.).
For the molecule `Cc1nc(N[C@H]2CC[C@@H](NS(=O)(=O)c3ccc(-c4ccon4)s3)CC2)cc(N(C)C)n1` [compound 517], the class is 3 (Class 3: The value of percent of control at 10^−7 M was more than 60% or the value of IC50 was more than 200 nM.).
For `Cc1nc(N[C@H]2CC[C@@H](NC(=O)Cc3ccc(SC(F)(F)F)cc3)CC2)cc(N(C)C)n1` [compound 315], the class is listed as 3 (Class 3: The value of percent of control at 10^−7 M was more than 60% or the value of IC50 was more than 200 nM.).
The result for `Cc1nc(N[C@H]2CC[C@@H](NS(=O)(=O)Cc3cccc(C(F)(F)F)c3)CC2)cc(N(C)C)n1` [compound 472] reads 3 (Class 3: The value of percent of control at 10^−7 M was more than 60% or the value of IC50 was more than 200 nM.); that for `Cc1nc(N[C@H]2CC[C@@H](NC(=O)Cc3csc4ccccc34)CC2)cc(N(C)C)n1` [compound 338], 3 (Class 3: The value of percent of control at 10^−7 M was more than 60% or the value of IC50 was more than 200 nM.).
Next, `Cc1nc(N[C@H]2CC[C@@H](NCc3ccccc3I)CC2)cc(N(C)C)n1` [compound 375]: 3 (Class 3: The value of percent of control at 10^−7 M was more than 60% or the value of IC50 was more than 200 nM.).
Next, `Cc1nc(N[C@H]2CC[C@@H](NC(=O)/C=C/c3ccccc3Cl)CC2)cc(N(C)C)n1` [compound 265]: 3 (Class 3: The value of percent of control at 10^−7 M was more than 60% or the value of IC50 was more than 200 nM.).
With `Cc1ccc(S(=O)(=O)NCC(=O)N[C@H]2CC[C@@H](Nc3cc(N(C)C)nc(C)n3)CC2)cc1` [compound 317], the class was 3 (Class 3: The value of percent of control at 10^−7 M was more than 60% or the value of IC50 was more than 200 nM.).
The result for `Cc1nc(N[C@H]2CC[C@@H](NS(=O)(=O)c3cccc4cccnc34)CC2)cc(N(C)C)n1` [compound 522] reads 3 (Class 3: The value of percent of control at 10^−7 M was more than 60% or the value of IC50 was more than 200 nM.); that for `Cc1ccc(SC(CC(=O)c2ccc(F)cc2)C(=O)N[C@H]2CC[C@@H](Nc3cc(N(C)C)nc(C)n3)CC2)cc1` (relative stereo) [compound 311], 3 (Class 3: The value of percent of control at 10^−7 M was more than 60% or the value of IC50 was more than 200 nM.).
